In the supplement of paper PMC10307832:

What was measured:
Assay in all cases: relative viability (nuclei count vs DMSO), 5 days (fraction); higher = more cells survive
ChaGo-K-1 = test system: ChaGo-K-1
Outline: (§1)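 One day after seeding in 1536-well plates, lung cancer cell lines were dosed by pin tool. Dosing was either single-drug or a fixed anchor-drug dose plus five library-drug doses (not always all listed) in √10 steps. After 5 days, nuclei were stained in one fix-and-stain step and counted on 4× images, and relative viability is the nuclei count of treated wells over that of vehicle wells, given as the median of duplicate plates.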

EMC-BAC-2 = test system: EMC-BAC-2
Outline: as §1

EPLC-272H = test system: EPLC-272H
Outline: as §1

H3255 = test system: H3255
Outline: as §1

HCC-44 = test system: HCC-44
Outline: as §1

HCC-827 = test system: HCC-827
Outline: as §1

LCLC-103H = test system: LCLC-103H
Outline: as §1

LCLC-97TM1 = test system: LCLC-97TM1
Outline: as §1

NCI-H1355 = test system: NCI-H1355
Outline: as §1

NCI-H1395 = test system: NCI-H1395
Outline: as §1

NCI-H1651 = test system: NCI-H1651
Outline: as §1

NCI-H1793 = test system: NCI-H1793
Outline: as §1

NCI-H1944 = test system: NCI-H1944
Outline: as §1

NCI-H1993 = test system: NCI-H1993
Outline: as §1

NCI-H2085 = test system: NCI-H2085
Outline: as §1

NCI-H2087 = test system: NCI-H2087
Outline: as §1

NCI-H23 = test system: NCI-H23
Outline: as §1

NCI-H2405 = test system: NCI-H2405
Outline: as §1

NCI-H322M = test system: NCI-H322M
Outline: as §1

NCI-H650 = test system: NCI-H650
Outline: as §1

COc1cc(N2CCC(C(N)=O)CC2)ccc1Nc1nc(N)c(Cl)c(Nc2ccccc2S(=O)(=O)C(C)C)n1 [HG-5-88-01] + NC(=O)Nc1cc(-c2cccc(F)c2)sc1C(=O)N[C@H]1CCCNC1 [AZD7762] (partner 0.2 µM)
relative viability (ChaGo-K-1; first compound 0.04 µM): 0.842
relative viability (ChaGo-K-1; first compound 0.1265 µM): 0.909
relative viability (ChaGo-K-1; first compound 0.4 µM): 0.828
relative viability (ChaGo-K-1; first compound 1.265 µM): 0.852
relative viability (ChaGo-K-1; first compound 4 µM): 0.727
relative viability (EMC-BAC-2; first compound 0.04 µM): 1.09
relative viability (EMC-BAC-2; first compound 0.1265 µM): 1.21
relative viability (EMC-BAC-2; first compound 0.4 µM): 0.922
relative viability (EMC-BAC-2; first compound 1.265 µM): 0.975
relative viability (EMC-BAC-2; first compound 4 µM): 0.65
relative viability (EPLC-272H; first compound 0.04 µM): 0.215
relative viability (EPLC-272H; first compound 0.1265 µM): 0.222
relative viability (EPLC-272H; first compound 0.4 µM): 0.203
relative viability (EPLC-272H; first compound 1.265 µM): 0.234
relative viability (EPLC-272H; first compound 4 µM): 0.0657
relative viability (H3255; first compound 0.04 µM): 1.16
relative viability (H3255; first compound 0.1265 µM): 1.01
relative viability (H3255; first compound 0.4 µM): 0.916
relative viability (H3255; first compound 4 µM): 0.699
relative viability (HCC-44; first compound 0.04 µM): 0.959
relative viability (HCC-44; first compound 0.1265 µM): 0.999
relative viability (HCC-44; first compound 0.4 µM): 0.995
relative viability (HCC-44; first compound 1.265 µM): 1.03
relative viability (HCC-44; first compound 4 µM): 0.957
relative viability (HCC-827; first compound 0.04 µM): 0.313
relative viability (HCC-827; first compound 0.1265 µM): 0.184
relative viability (HCC-827; first compound 0.4 µM): 0.167
relative viability (HCC-827; first compound 1.265 µM): 0.129
relative viability (HCC-827; first compound 4 µM): 0.123
relative viability (LCLC-103H; first compound 0.04 µM): 0.803
relative viability (LCLC-103H; first compound 0.1265 µM): 0.761
relative viability (LCLC-103H; first compound 0.4 µM): 0.616
relative viability (LCLC-103H; first compound 1.265 µM): 0.828
relative viability (LCLC-103H; first compound 4 µM): 0.697
relative viability (LCLC-97TM1; first compound 0.04 µM): 0.251
relative viability (LCLC-97TM1; first compound 0.1265 µM): 0.262
relative viability (LCLC-97TM1; first compound 0.4 µM): 0.231
relative viability (LCLC-97TM1; first compound 1.265 µM): 0.225
relative viability (LCLC-97TM1; first compound 4 µM): 0.0952
relative viability (NCI-H1355; first compound 0.04 µM): 0.714
relative viability (NCI-H1355; first compound 0.1265 µM): 0.731
relative viability (NCI-H1355; first compound 0.4 µM): 0.762
relative viability (NCI-H1355; first compound 1.265 µM): 0.69
relative viability (NCI-H1355; first compound 4 µM): 0.474
relative viability (NCI-H1395; first compound 0.04 µM): 0.366
relative viability (NCI-H1395; first compound 0.1265 µM): 0.403
relative viability (NCI-H1395; first compound 0.4 µM): 0.418
relative viability (NCI-H1395; first compound 1.265 µM): 0.384
relative viability (NCI-H1395; first compound 4 µM): 0.362
relative viability (NCI-H1651; first compound 0.04 µM): 0.463
relative viability (NCI-H1651; first compound 0.1265 µM): 0.447
relative viability (NCI-H1651; first compound 0.4 µM): 0.439
relative viability (NCI-H1651; first compound 1.265 µM): 0.342
relative viability (NCI-H1651; first compound 4 µM): 0.321
relative viability (NCI-H1793; first compound 0.04 µM): 0.557
relative viability (NCI-H1793; first compound 0.1265 µM): 0.409
relative viability (NCI-H1793; first compound 0.4 µM): 0.379
relative viability (NCI-H1793; first compound 1.265 µM): 0.452
relative viability (NCI-H1793; first compound 4 µM): 0.186
relative viability (NCI-H1944; first compound 0.04 µM): 0.586
relative viability (NCI-H1944; first compound 0.1265 µM): 0.503
relative viability (NCI-H1944; first compound 0.4 µM): 0.434
relative viability (NCI-H1944; first compound 1.265 µM): 0.514
relative viability (NCI-H1944; first compound 4 µM): 0.469
relative viability (NCI-H1993; first compound 0.04 µM): 0.845
relative viability (NCI-H1993; first compound 0.1265 µM): 0.875
relative viability (NCI-H1993; first compound 0.4 µM): 0.77
relative viability (NCI-H1993; first compound 4 µM): 0.558
relative viability (NCI-H2085; first compound 0.04 µM): 1.08
relative viability (NCI-H2085; first compound 0.1265 µM): 0.969
relative viability (NCI-H2085; first compound 0.4 µM): 0.922
relative viability (NCI-H2085; first compound 1.265 µM): 0.964
relative viability (NCI-H2085; first compound 4 µM): 0.667
relative viability (NCI-H2087; first compound 0.04 µM): 1.23
relative viability (NCI-H2087; first compound 0.1265 µM): 1.26
relative viability (NCI-H2087; first compound 0.4 µM): 1.45
relative viability (NCI-H2087; first compound 1.265 µM): 1.14
relative viability (NCI-H2087; first compound 4 µM): 1.17
relative viability (NCI-H23; first compound 0.04 µM): 0.483
relative viability (NCI-H23; first compound 0.1265 µM): 0.27
relative viability (NCI-H23; first compound 0.4 µM): 0.213
relative viability (NCI-H23; first compound 1.265 µM): 0.235
relative viability (NCI-H23; first compound 4 µM): 0.174
relative viability (NCI-H2405; first compound 0.04 µM): 0.769
relative viability (NCI-H2405; first compound 0.1265 µM): 0.659
relative viability (NCI-H2405; first compound 0.4 µM): 0.569
relative viability (NCI-H2405; first compound 1.265 µM): 0.638
relative viability (NCI-H2405; first compound 4 µM): 0.504
relative viability (NCI-H322M; first compound 0.04 µM): 0.665
relative viability (NCI-H322M; first compound 0.1265 µM): 0.61
relative viability (NCI-H322M; first compound 0.4 µM): 0.465
relative viability (NCI-H322M; first compound 1.265 µM): 0.454
relative viability (NCI-H322M; first compound 4 µM): 0.466
relative viability (NCI-H650; first compound 0.04 µM): 1.04
relative viability (NCI-H650; first compound 0.1265 µM): 1.07
relative viability (NCI-H650; first compound 0.4 µM): 0.901
relative viability (NCI-H650; first compound 1.265 µM): 1.01
relative viability (NCI-H650; first compound 4 µM): 0.683
